Reference: ChEMBL document CHEMBL1139886, “Synthesis and characterization of constrained peptidomimetic dipeptidyl peptidase IV inhibitors: amino-lactam boroalanines” (J Med Chem, 2007)

Legend:
[1] = target: T1, Dipeptidyl peptidase 4 (Homo sapiens, UniProt P27487); assay: Inhibition of human placental DPP4 at pH 8
[2] = target: T1, Dipeptidyl peptidase 4; assay: Inhibition of human placental DPP4 at pH 2
[3] = target: T1, Dipeptidyl peptidase 4; assay: Inhibition of human placental DPP4

T1 sequence (P27487 whole entry): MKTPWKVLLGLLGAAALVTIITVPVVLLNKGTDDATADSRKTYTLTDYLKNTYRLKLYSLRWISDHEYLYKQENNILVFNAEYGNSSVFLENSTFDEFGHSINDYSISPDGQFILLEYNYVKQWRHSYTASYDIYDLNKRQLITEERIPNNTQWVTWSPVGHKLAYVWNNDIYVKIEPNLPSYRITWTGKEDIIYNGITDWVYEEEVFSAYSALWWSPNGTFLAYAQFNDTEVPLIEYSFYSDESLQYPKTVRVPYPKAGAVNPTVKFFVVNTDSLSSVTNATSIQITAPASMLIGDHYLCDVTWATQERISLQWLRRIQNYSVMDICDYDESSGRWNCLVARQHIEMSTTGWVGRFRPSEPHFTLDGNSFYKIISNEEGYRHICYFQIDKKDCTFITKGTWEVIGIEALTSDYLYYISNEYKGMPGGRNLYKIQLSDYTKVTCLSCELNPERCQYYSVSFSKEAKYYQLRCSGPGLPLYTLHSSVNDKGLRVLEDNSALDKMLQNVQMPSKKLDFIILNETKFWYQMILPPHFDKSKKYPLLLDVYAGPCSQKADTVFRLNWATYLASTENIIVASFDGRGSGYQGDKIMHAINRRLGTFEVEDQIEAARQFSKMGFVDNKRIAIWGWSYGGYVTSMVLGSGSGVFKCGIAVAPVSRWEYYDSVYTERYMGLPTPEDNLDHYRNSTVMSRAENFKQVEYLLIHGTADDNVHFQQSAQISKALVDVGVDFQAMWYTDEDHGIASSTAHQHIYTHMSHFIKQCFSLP

IC50 [1] | IC50 [2] | Ki [3] | Compound
4.2 nM | 5.3 nM | 2.3 nM | C[C@@H](B(O)O)N1CC[C@@H](N)C1=O
460 nM | 480 nM | 1100 nM | C[C@@H](B(O)O)N1CC[C@H](N)C1=O
